Results as given in patent publication US20180104224A1, “PHARMACEUTICAL COMPOSITIONS COMPRISING ANTIBACTERIAL AGENTS” (priority 2014, published 2018).

Columns and labels:
[1] = test system: P. aeruginosa 1405; assay: MIC determination in Muller Hinton Agar (CLSI); type: cell-based, Pseudomonas aeruginosa; conditions: for MIC (mcg/ml) of carbapenem in presence of [A] at 4 mcg/ml: in presence of Compound A at 4 mcg/ml; for MIC (mcg/ml) of carbapenem in presence of [B] at 4 mcg/ml: in presence of Compound B at 4 mcg/ml;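 for all read-outs here: MIC read as lowest concentration giving complete growth inhibition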
Method: (§1) The antibacterial activity of combinations according to the invention against resistant bacterial strains was investigated. Minimum Inhibitory Concentration (MIC) determination for the combinations according to invention was carried out in Muller Hinton Agar (MHA) (BD, USA) according to Clinical and Laboratory Standards Institute (CLSI) recommendations, (Clinical and Laboratory Standards Institute (CLSI), Performance Standards for Antimicrobial Susceptibility Testing, 20th Informational Supplement, M 100-S20, Volume 30, No. 1, 2010). In short, the test strains were adjusted to deliver about 10^4 CFU per spot with a multipoint inoculator (Applied Quality Services, UK). The plates were pored with MHA containing doubling concentration range of the test combinations according to invention. The plates were inoculated and were incubated at 35° C. for 18 hours.

[2] = test system: P. aeruginosa 2779; assay: MIC determination in Muller Hinton Agar (CLSI); type: cell-based, Pseudomonas aeruginosa; conditions: for MIC (mcg/ml) of carbapenem in presence of [A] at 4 mcg/ml: in presence of Compound A at 4 mcg/ml; for MIC (mcg/ml) of carbapenem in presence of [B] at 4 mcg/ml: in presence of Compound B at 4 mcg/ml;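 for all read-outs here: MIC read as lowest concentration giving complete growth inhibition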
Method: as §1

[3] = test system: P. aeruginosa J 154; assay: MIC determination in Muller Hinton Agar (CLSI);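 for MIC (mcg/ml) of carbapenem in presence of [A] at 4 mcg/ml: MIC read as lowest concentration giving complete growth inhibition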;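 for MIC (mcg/ml) of carbapenem in presence of [B] at 4 mcg/ml: MIC read as lowest concentration giving complete growth inhibition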; type: cell-based, Pseudomonas aeruginosa; conditions: for MIC: Pseudomonas aeruginosa, J154, agent alone, P. aeruginosa J 154 [Reduced OprD]; for MIC (mcg/ml) of carbapenem in presence of [A] at 4 mcg/ml: in presence of Compound A at 4 mcg/ml; for MIC (mcg/ml) of carbapenem in presence of [A] at 4 mcg/ml / MIC (mcg/ml) of carbapenem in presence of [B] at 4 mcg/ml: P. aeruginosa J 154; for MIC (mcg/ml) of carbapenem in presence of [B] at 4 mcg/ml: in presence of Compound B at 4 mcg/ml
Method: as §1

[4] = test system: P. aeruginosa R 70; assay: MIC determination in Muller Hinton Agar (CLSI); type: cell-based, Pseudomonas aeruginosa; conditions: for MIC: Pseudomonas aeruginosa, R70, 18 h, agent alone, P. aeruginosa R 70 [Reduced OprD + increased efflux]; for MIC (mcg/ml) of carbapenem in presence of [A] at 4 mcg/ml: in presence of Compound A at 4 mcg/ml; for MIC (mcg/ml) of carbapenem in presence of [A] at 4 mcg/ml / MIC (mcg/ml) of carbapenem in presence of [B] at 4 mcg/ml: P. aeruginosa R 70; for MIC (mcg/ml) of carbapenem in presence of [B] at 4 mcg/ml: in presence of Compound B at 4 mcg/ml
Method: as §1

[5] = test system: Pseudomonas aeruginosa 1405; assay: Time kill study; type: cell-based; conditions: P. aeruginosa 1405; for effect on bacterial counts through out the duration of the study (in words): when used alone
Method: (§2) The synergistic killing effect of the combinations according to invention was studied by performing time kill studies. In a typical time kill study, the freshly grown cultures were diluted to the required cell density (initial starting inoculum) in Cation adjusted Muller Hinton broth medium (BD, USA). The antibacterial agents (either alone or in combination) at the required concentrations were added into the culture-containing medium. The samples were incubated under shaking condition (120 rpm) at 37° C. Enumeration of viable bacterial count was done every 2 hour by diluting in normal saline and plating on to the Tryptic Soya Agar plates (BD, USA). The plates were incubated for 24 hours to arrive at the viable bacterial count. The results are expressed in terms of Log10 CFU per ml. In general, the decrease of 1 Log10 CFU/ml, corresponds to 90% killing of bacteria.

[6] = test system: Pseudomonas aeruginosa R70; assay: Time kill study; type: cell-based; conditions: P. aeruginosa R70; for effect on bacterial counts through out the duration of the study (in words): when used alone
Method: as §2

[7] = test system: highly resistant strains of Pseudomonas aeruginosa; assay: MIC determination, all strains; type: cell-based; conditions: highly resistant strains of P. aeruginosa
Method: as §1
The results on antibacterial activity of a carbapenem antibacterial agent selected from imipenem, meropenem, ertapenem and doripenem alone and in combination with Compound A or Compound B, against highly resistant strains of Pseudomonas aeruginosa are given in Table 1. […] For example, P. aeruginosa 2779 harbors resistance due to increased AmpC expression (300 times) and increased efflux; P. aeruginosa 1405 harbors resistance due to increased AmpC expression (600 times), reduced OprD expression and increased efflux; P. aeruginosa R 70 harbors resistance due to reduced OprD expression and increased efflux; and P. aeruginosa J 154 harbors resistance due to reduced OprD.

[8] = Table 2, single agent 16 mcg/ml
[9] = Table 3, single agent 16 mcg/ml
[10] = Table 4, single agent 16 mcg/ml
[11] = Table 5, single agent 16 mcg/ml
[12] = in presence of Compound A or Compound B

MIC (mcg/ml) of carbapenem in presence of [A] at 4 mcg/ml [1] [µg/mL] | MIC (mcg/ml) of carbapenem in presence of [B] at 4 mcg/ml [1] [µg/mL] | MIC (mcg/ml) of carbapenem in presence of [A] at 4 mcg/ml [2] [µg/mL] | MIC (mcg/ml) of carbapenem in presence of [B] at 4 mcg/ml [2] [µg/mL] | MIC [3] [µg/mL] | MIC (mcg/ml) of carbapenem in presence of [A] at 4 mcg/ml [3] [µg/mL] | MIC (mcg/ml) of carbapenem in presence of [B] at 4 mcg/ml [3] [µg/mL] | MIC [4] [µg/mL] | MIC (mcg/ml) of carbapenem in presence of [A] at 4 mcg/ml [4] [µg/mL] | MIC (mcg/ml) of carbapenem in presence of [B] at 4 mcg/ml [4] [µg/mL] | MIC values (in words) [7, 12] | MIC values (in words) ([7]; when used alone) | Compound | effect on bacterial counts through out the duration of the study (in words) [5] | effect on bacterial counts through out the duration of the study (in words) [6] | Bacterial count (Log10 CFU/ml) 0 hour ([5]; Table 2, single agent 4 mcg/ml) [Log10 CFU/ml] | Bacterial count (Log10 CFU/ml) 2 hour ([5]; Table 2, single agent 4 mcg/ml) [Log10 CFU/ml] | Bacterial count (Log10 CFU/ml) 4 hour ([5]; Table 2, single agent 4 mcg/ml) [Log10 CFU/ml] | Bacterial count (Log10 CFU/ml) 6 hour ([5]; Table 2, single agent 4 mcg/ml) [Log10 CFU/ml] | Bacterial count (Log10 CFU/ml) 0 hour ([5]; Table 3, single agent 4 mcg/ml) [Log10 CFU/ml] | Bacterial count (Log10 CFU/ml) 2 hour ([5]; Table 3, single agent 4 mcg/ml) [Log10 CFU/ml] | other results
4 | 4 | 0.12 | 0.06 | 8 | 8 | 4 | 16 | 8 | <0.12 | decreased significantly | higher MIC values | C[C@@H](O)[C@H]1C(=O)N2C(C(=O)O)=C(S[C@@H]3CN[C@H](CNS(N)(=O)=O)C3)[C@H](C)[C@H]12 [Doripenem, doripenem] | failed to reduce the bacterial counts | failed to reduce the bacterial counts | 6.84 | 6.17 | 5.90 | 6.60 | 6.81 | 6.17 | Bacterial count (Log10 CFU/ml) 4 hour ([5]; Table 3, single agent 4 mcg/ml): 5.90 Log10 CFU/ml; Bacterial count (Log10 CFU/ml) 6 hour ([5]; Table 3, single agent 4 mcg/ml): 6.60 Log10 CFU/ml; Bacterial count (Log10 CFU/ml) 0 hour ([6]; Table 4, single agent 4 mcg/ml): 6.62 Log10 CFU/ml; Bacterial count (Log10 CFU/ml) 2 hour ([6]; Table 4, single agent 4 mcg/ml): 5.74 Log10 CFU/ml; Bacterial count (Log10 CFU/ml) 4 hour ([6]; Table 4, single agent 4 mcg/ml): 5.65 Log10 CFU/ml; Bacterial count (Log10 CFU/ml) 6 hour ([6]; Table 4, single agent 4 mcg/ml): 5.65 Log10 CFU/ml; Bacterial count (Log10 CFU/ml) 0 hour ([6]; Table 5, single agent 4 mcg/ml): 6.44 Log10 CFU/ml; Bacterial count (Log10 CFU/ml) 2 hour ([6]; Table 5, single agent 4 mcg/ml): 5.74 Log10 CFU/ml; Bacterial count (Log10 CFU/ml) 4 hours ([6]; Table 5, single agent 4 mcg/ml): 5.65 Log10 CFU/ml; Bacterial count (Log10 CFU/ml) 6 hour ([6]; Table 5, single agent 4 mcg/ml): 5.65 Log10 CFU/ml
4 | 0.12 | 0.12 | 0.12 | 16 | 8 | <0.25 | > 32 | 16 | ≤0.12 | decreased significantly | higher MIC values | C[C@@H](O)[C@H]1C(=O)N2C(C(=O)O)=C(S[C@@H]3CN[C@H](C(=O)N(C)C)C3)[C@H](C)[C@H]12 [Meropenem, meropenem] | failed to reduce the bacterial counts | failed to reduce the bacterial counts | 6.84 | 5.95 | 6.89 | 7.02 | 6.81 | 6.8 | Bacterial count (Log10 CFU/ml) 4 hour ([5]; Table 3, single agent 4 mcg/ml): 7.0 Log10 CFU/ml; Bacterial count (Log10 CFU/ml) 6 hour ([5]; Table 3, single agent 4 mcg/ml): 7.3 Log10 CFU/ml; Bacterial count (Log10 CFU/ml) 0 hour ([6]; Table 4, single agent 4 mcg/ml): 6.62 Log10 CFU/ml; Bacterial count (Log10 CFU/ml) 2 hour ([6]; Table 4, single agent 4 mcg/ml): 7.07 Log10 CFU/ml; Bacterial count (Log10 CFU/ml) 4 hour ([6]; Table 4, single agent 4 mcg/ml): 6.84 Log10 CFU/ml; Bacterial count (Log10 CFU/ml) 6 hour ([6]; Table 4, single agent 4 mcg/ml): 8.36 Log10 CFU/ml; Bacterial count (Log10 CFU/ml) 0 hour ([6]; Table 5, single agent 4 mcg/ml): 6.44 Log10 CFU/ml; Bacterial count (Log10 CFU/ml) 2 hour ([6]; Table 5, single agent 4 mcg/ml): 6.14 Log10 CFU/ml; Bacterial count (Log10 CFU/ml) 4 hours ([6]; Table 5, single agent 4 mcg/ml): 7.07 Log10 CFU/ml; Bacterial count (Log10 CFU/ml) 6 hour ([6]; Table 5, single agent 4 mcg/ml): 7.3 Log10 CFU/ml

Compound | MIC (mcg/ml) of carbapenem in presence of [A] at 4 mcg/ml [1] [µg/mL] | MIC (mcg/ml) of carbapenem in presence of [B] at 4 mcg/ml [1] [µg/mL] | MIC (mcg/ml) of carbapenem in presence of [A] at 4 mcg/ml [2] [µg/mL] | MIC (mcg/ml) of carbapenem in presence of [B] at 4 mcg/ml [2] [µg/mL] | MIC [3] [µg/mL] | MIC (mcg/ml) of carbapenem in presence of [A] at 4 mcg/ml [3] [µg/mL] | MIC (mcg/ml) of carbapenem in presence of [B] at 4 mcg/ml [3] [µg/mL] | MIC [4] [µg/mL] | MIC (mcg/ml) of carbapenem in presence of [A] at 4 mcg/ml [4] [µg/mL] | MIC (mcg/ml) of carbapenem in presence of [B] at 4 mcg/ml [4] [µg/mL] | MIC values (in words) [7, 12] | MIC values (in words) ([7]; when used alone) | effect on bacterial counts through out the duration of the study (in words) [5] | effect on bacterial counts through out the duration of the study (in words) [6] | Bacterial count (Log10 CFU/ml) 0 hour ([5]; Table 2, single agent 4 mcg/ml) [Log10 CFU/ml] | Bacterial count (Log10 CFU/ml) 2 hour ([5]; Table 2, single agent 4 mcg/ml) [Log10 CFU/ml] | Bacterial count (Log10 CFU/ml) 4 hour ([5]; Table 2, single agent 4 mcg/ml) [Log10 CFU/ml] | Bacterial count (Log10 CFU/ml) 6 hour ([5]; Table 2, single agent 4 mcg/ml) [Log10 CFU/ml] | Bacterial count (Log10 CFU/ml) 0 hour ([5]; Table 3, single agent 4 mcg/ml) [Log10 CFU/ml] | Bacterial count (Log10 CFU/ml) 2 hour ([5]; Table 3, single agent 4 mcg/ml) [Log10 CFU/ml] | other results
C[C@@H](O)[C@H]1C(=O)N2C(C(=O)O)=C(S[C@@H]3CN[C@H](C(=O)Nc4cccc(C(=O)O)c4)C3)[C@H](C)[C@H]12 [Ertapenem, ertapenem] | 128 | 64 | 4 | 4 | > 128 | >128 | 128 | > 128 | >128 | ≤0.12 | decreased significantly | higher MIC values | failed to reduce the bacterial counts | failed to reduce the bacterial counts |  |  |  |  |  |  | Bacterial count (Log10 CFU/ml) 0 hour [5, 8]: 6.84 Log10 CFU/ml; Bacterial count (Log10 CFU/ml) 2 hour [5, 8]: 6.90 Log10 CFU/ml; Bacterial count (Log10 CFU/ml) 4 hour [5, 8]: 7.87 Log10 CFU/ml; Bacterial count (Log10 CFU/ml) 6 hour [5, 8]: 7.65 Log10 CFU/ml; Bacterial count (Log10 CFU/ml) 0 hour [5, 9]: 6.81 Log10 CFU/ml; Bacterial count (Log10 CFU/ml) 2 hour [5, 9]: 6.90 Log10 CFU/ml; Bacterial count (Log10 CFU/ml) 4 hour [5, 9]: 7.87 Log10 CFU/ml; Bacterial count (Log10 CFU/ml) 6 hour [5, 9]: 7.65 Log10 CFU/ml; Bacterial count (Log10 CFU/ml) 0 hour [6, 10]: 6.62 Log10 CFU/ml; Bacterial count (Log10 CFU/ml) 2 hour [6, 10]: 6.87 Log10 CFU/ml; Bacterial count (Log10 CFU/ml) 4 hour [6, 10]: 7.47 Log10 CFU/ml; Bacterial count (Log10 CFU/ml) 6 hour [6, 10]: 8.16 Log10 CFU/ml; Bacterial count (Log10 CFU/ml) 0 hour [6, 11]: 6.44 Log10 CFU/ml; Bacterial count (Log10 CFU/ml) 2 hour [6, 11]: 6.46 Log10 CFU/ml; Bacterial count (Log10 CFU/ml) 4 hours [6, 11]: 7.17 Log10 CFU/ml; Bacterial count (Log10 CFU/ml) 6 hour [6, 11]: 7.13 Log10 CFU/ml
